According to ChEMBL document CHEMBL1122963, “[3H]Batrachotoxinin A 20 alpha-benzoate binding to voltage-sensitive sodium channels: a rapid and quantitative assay for local anesthetic activity in a variety of drugs” (J Med Chem, 1985):

Assays:
[1] = target: T1, Sodium channel alpha subunits; brain (Types I, II, III) (Homo sapiens, UniProt P35498+Q99250+Q9NY46); conditions: Cavia porcellus; Cerebral cortex; at 10 µM
[2] = target: T1, Sodium channel alpha subunits; brain (Types I, II, III); test: Inhibition of binding of Batrachotoxinin [3H]BTX-B to high affinity sites on voltage dependent sodium channels in a vesicular preparation from guinea pig cerebral cortex; type: tissue-based, Cavia porcellus
[3] = target: T1, Sodium channel alpha subunits; brain (Types I, II, III); conditions: Cavia porcellus; Cerebral cortex; at 100 µM
[4] = target: T1, Sodium channel alpha subunits; brain (Types I, II, III); conditions: Cavia porcellus; Cerebral cortex; at 10 µM; remark: listed apart in the source

T1 sequence (Q99250 whole entry, looked up, other chains not shown): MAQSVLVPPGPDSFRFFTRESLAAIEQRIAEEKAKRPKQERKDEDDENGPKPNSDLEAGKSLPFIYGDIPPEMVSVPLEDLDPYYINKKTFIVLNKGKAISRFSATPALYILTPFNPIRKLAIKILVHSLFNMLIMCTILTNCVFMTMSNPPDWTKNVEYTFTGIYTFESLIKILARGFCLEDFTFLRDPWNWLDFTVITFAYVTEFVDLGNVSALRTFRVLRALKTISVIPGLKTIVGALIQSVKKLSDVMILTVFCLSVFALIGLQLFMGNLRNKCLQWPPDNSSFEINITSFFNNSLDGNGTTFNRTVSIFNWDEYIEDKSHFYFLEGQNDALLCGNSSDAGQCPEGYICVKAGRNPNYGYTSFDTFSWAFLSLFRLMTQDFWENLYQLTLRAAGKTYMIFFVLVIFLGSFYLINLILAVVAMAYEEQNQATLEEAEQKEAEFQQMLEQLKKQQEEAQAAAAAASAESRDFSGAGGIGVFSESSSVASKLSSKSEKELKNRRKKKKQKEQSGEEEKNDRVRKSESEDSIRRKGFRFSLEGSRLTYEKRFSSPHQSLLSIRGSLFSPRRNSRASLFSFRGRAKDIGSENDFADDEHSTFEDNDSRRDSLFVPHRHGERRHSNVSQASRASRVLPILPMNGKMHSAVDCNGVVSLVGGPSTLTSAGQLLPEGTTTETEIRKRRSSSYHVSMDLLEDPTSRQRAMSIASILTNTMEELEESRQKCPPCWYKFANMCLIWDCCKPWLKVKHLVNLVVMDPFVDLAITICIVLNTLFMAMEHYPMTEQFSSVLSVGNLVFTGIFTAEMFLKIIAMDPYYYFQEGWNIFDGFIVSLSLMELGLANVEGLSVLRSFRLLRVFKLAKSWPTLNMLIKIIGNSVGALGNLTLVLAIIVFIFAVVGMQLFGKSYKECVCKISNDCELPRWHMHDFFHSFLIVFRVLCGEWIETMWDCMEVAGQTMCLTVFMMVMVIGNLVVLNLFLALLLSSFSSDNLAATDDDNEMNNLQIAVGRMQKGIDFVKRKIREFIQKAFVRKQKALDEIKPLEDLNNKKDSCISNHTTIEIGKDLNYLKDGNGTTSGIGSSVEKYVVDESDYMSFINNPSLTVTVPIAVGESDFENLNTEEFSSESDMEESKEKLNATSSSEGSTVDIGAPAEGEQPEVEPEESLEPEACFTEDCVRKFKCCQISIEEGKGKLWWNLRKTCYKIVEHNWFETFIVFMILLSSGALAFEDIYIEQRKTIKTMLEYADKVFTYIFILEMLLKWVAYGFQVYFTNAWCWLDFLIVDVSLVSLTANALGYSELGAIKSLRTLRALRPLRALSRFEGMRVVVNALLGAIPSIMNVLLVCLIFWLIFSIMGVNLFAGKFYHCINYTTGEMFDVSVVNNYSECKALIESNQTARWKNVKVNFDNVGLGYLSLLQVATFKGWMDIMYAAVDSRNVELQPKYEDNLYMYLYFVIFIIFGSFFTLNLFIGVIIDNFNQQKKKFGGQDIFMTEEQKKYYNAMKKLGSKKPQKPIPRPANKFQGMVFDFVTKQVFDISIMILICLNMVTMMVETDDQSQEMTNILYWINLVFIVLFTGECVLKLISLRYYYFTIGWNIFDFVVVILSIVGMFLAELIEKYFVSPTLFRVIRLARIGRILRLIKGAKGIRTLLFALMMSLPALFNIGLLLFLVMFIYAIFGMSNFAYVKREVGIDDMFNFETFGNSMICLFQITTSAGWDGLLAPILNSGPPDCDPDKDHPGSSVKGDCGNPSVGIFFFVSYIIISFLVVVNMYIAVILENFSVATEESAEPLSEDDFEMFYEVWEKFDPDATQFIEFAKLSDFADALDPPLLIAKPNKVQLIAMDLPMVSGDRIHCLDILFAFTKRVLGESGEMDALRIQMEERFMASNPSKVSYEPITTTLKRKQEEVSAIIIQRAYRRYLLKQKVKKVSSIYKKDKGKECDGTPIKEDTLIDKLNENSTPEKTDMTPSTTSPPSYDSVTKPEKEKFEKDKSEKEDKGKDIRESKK
T1 sequence (Q9NY46 whole entry, looked up, other chains not shown): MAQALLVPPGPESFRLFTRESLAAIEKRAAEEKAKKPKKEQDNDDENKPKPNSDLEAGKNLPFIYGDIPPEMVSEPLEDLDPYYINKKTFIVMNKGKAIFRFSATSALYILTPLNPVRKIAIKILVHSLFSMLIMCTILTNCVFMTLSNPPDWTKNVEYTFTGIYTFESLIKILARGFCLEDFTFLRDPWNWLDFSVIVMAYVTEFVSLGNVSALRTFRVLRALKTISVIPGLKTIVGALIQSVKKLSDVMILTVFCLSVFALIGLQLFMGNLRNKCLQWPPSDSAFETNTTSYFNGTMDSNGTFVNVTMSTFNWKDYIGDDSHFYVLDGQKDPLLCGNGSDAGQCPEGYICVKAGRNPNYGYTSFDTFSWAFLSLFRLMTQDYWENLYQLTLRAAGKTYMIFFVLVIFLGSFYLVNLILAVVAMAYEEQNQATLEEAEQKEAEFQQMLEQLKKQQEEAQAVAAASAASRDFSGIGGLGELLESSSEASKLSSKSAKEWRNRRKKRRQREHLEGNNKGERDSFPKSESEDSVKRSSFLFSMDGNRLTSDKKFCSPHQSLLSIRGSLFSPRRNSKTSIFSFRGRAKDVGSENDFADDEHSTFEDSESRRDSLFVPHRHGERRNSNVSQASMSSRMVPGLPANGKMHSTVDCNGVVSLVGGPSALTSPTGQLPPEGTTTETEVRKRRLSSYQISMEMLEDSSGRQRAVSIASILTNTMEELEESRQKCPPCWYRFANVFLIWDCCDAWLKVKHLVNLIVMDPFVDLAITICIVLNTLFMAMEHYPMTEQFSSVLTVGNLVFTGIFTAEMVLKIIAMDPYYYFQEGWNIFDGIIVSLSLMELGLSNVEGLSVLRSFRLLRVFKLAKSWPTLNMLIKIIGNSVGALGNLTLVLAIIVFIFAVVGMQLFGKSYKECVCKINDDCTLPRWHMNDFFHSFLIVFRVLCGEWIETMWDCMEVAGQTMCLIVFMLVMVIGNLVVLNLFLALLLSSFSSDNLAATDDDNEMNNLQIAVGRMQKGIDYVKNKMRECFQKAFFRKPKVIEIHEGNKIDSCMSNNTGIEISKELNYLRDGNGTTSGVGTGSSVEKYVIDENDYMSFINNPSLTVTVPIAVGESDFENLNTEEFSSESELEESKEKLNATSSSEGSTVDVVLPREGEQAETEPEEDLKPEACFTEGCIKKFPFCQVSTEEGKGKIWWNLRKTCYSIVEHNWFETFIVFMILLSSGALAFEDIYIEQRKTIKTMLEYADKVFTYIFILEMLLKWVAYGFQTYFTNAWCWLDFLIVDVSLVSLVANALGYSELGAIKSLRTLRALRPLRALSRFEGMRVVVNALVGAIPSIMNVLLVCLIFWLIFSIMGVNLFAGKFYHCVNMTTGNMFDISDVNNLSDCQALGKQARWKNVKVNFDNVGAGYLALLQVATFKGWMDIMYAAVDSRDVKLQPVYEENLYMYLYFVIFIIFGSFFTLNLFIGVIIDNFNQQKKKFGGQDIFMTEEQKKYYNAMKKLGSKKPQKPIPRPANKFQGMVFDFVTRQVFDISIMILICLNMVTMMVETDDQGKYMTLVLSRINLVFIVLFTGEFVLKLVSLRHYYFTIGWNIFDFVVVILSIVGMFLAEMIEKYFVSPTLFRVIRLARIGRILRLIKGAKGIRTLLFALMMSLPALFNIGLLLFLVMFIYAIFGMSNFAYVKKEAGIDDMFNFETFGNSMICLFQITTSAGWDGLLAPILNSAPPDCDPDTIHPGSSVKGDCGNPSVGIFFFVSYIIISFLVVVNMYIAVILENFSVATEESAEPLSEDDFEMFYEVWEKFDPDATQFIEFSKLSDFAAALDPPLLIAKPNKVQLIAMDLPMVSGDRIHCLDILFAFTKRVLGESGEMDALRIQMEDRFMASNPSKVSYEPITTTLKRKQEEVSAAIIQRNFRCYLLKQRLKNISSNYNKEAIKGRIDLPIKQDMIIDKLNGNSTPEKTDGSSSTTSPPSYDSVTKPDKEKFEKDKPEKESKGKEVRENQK

Compound | inhibition [1] [%] | IC50 [2] [µM] | inhibition [3] [%] | inhibition [4] [%]
CCN(CC)CCNC(=O)c1ccc(N=[N+]=[N-])cc1 | 13.4 | 65 | 56.1 | –
N=C1CCCCCCCCCCCN1C1CCCC1c1ccccc1 (stereo not drawn) | – | 0.8 | 100 | –
CC1CCCC[N+]1(C)CCCOC(=O)c1ccccc1.[I-] (stereo not drawn) | 9.6 | 360 | 31.4 | –
Cc1cccc(C)c1NC(=O)C1CCCCN1C (stereo not drawn) | 5.3 | – | 29.3 | –
CCCNC(C)C(=O)Nc1c(C)csc1C(=O)OC (stereo not drawn) [ARTICAINE] | 17.1 | – | 62.2 | –
CCOC(=O)c1ccc(N)cc1 [BENZOCAINE] | 5.1 | 910 | 0 | –
CC(C)CNCCOC(=O)c1ccc(N)cc1 [BUTETHAMINE] | 12.3 | 55 | 63.2 | –
C(=C\c1ccccc1)/CN1CCN(C(c2ccccc2)c2ccccc2)CC1 [CINNARIZINE] | – | – | – | 94.6
COC(=O)[C@H]1[C@@H](OC(=O)c2ccccc2)C[C@@H]2CC[C@H]1N2C [COCAINE] | 19.5 | 49 | 63.2 | –
C=C[C@@]1(C)CC(=O)[C@]2(O)[C@@]3(C)[C@@H](O)CCC(C)(C)[C@@H]3[C@H](O)[C@H](OC(C)=O)[C@@]2(C)O1 [COLFORSIN] | – | 60 | 62.8 | –
c1ccc2c(c1)OCC(CN1CCCCC1)O2 (stereo not drawn) [PIPEROXAN] | – | 61 | 58.8 | –
CCCCOc1ccc(OCCCN2CCOCC2)cc1 [PRAMOXINE] | 29.7 | 21.2 | 86.3 | –
CCCNC(C)C(=O)Nc1ccccc1C (stereo not drawn) [PRILOCAINE] | 14.2 | 54 | 58.5 | –
COc1cc2c(cc1OC)C1CC(=O)C(CC(C)C)CN1CC2 (stereo not drawn) [TETRABENAZINE] | 7 | 85 | 55 | –
COc1ccc(CN(CCN(C)C)c2nccs2)cc1 [ZOLAMINE] | 35.9 | 19.2 | 82.4 | –
